# Tested on: melanoma lesions
# Test: CD8/Ki67/melanoma staining with nearest neighbor spatial analysis of biopsies
# Format: in vivo, human
# Description: Tumor samples obtained from melanoma patients were formalin-fixed and paraffin-embedded (FFPE) according to known procedures. FFPE tissue sections were baked for 1 hour at 60° C. The slides were dewaxed and stained on a Leica BOND Rx stainer (Leica, Buffalo Grove, Ill.) using Leica Bond reagents for dewaxing (Dewax Solution), antigen retrieval and antibody stripping (Epitope Retrieval Solution 2), and rinsing after each step (Bond Wash Solution). A high stringency wash was performed after the secondary and tertiary applications using high-salt TBST solution (0.05 M Tris, 0.3M NaCl, and 0.1% Tween-20, pH 7.2-7.6).
# Multiplex IHC staining was analyzed using HALO™ spatial analysis tools, and the entire tumor area of each specimen was scored. (See Tunstall, “Quantifying Immune Cell Distribution in the Tumor Microenvironment Using HALO™ Spatial Analysis Tools,” Application Note, July […], (Indica Labs), accessed Nov. 1, 2017, on https://thepathologist.com/fileadmin/issues/App_Notes/0016-010-halo-app-note.pdf). See also Sherry et al., Cancer Research 77(13) Supp: Abstract 2937 (2017).
# Slides were sequentially stained with antibody panels after rounds of heat-induced epitope retrieval and detected by antibody-binding HRP-containing polymers in conjunction with fluorescent tyramide substrate (Opal, Perkin-Elmer). DAPI was used as a nuclear counterstain. Fluorochromes with spectral overlap were imaged using spectral deconvolution and autofluorescence-subtraction (Vectra 3.0, Perkin-Elmer). Whole-slide scans were imaged using the Aperio-FL System (Leica Biosystems) and transferred into Halo for quantitative digital image analysis. After the cells were visualized based on nuclear recognition (DAPI stain), the software measured fluorescence intensity of the estimated cytoplasmic areas of each cell. A mean intensity threshold above background was used to determine positivity for each fluorochrome within the cytoplasm, thereby, defining cells as either positive or negative for each marker. The positive cell data was then used to define colocalized populations and to perform nearest neighbor spatial analysis.
# Staining for CD4, CD8, PD-1, PD-L1, CD163/CD68 (macrophage), FoxP3, Ki-67, and melanoma cells was accomplished using the antibodies listed in TABLE 3 and 4. OPAL Polymer HRP Mouse plus Rabbit (Perkin-Elmer, Hopkington, Mass.) was used for all secondary applications. […]
# Representative distance measurements between CD8^+ T cells and their nearest melanoma cell neighbors are shown in FIG. 13 (Day 1), FIG. 14 (Week 4), and FIG. 15 (End of treatment). Whole slide scans were performed using a fluorescence slide scanner (Aperio-FL, 20× objective). […]
structure (smiles),measurement,setting,value
NCCCCN(Cc1nc2ccccc2[nH]1)[C@H]1CCCc2cccnc21 [X4P-001],number of unique neighbors,"after 4 weeks of monotherapy, Day 1 3,826","5,239"
same,average distance between CD8+ T cells and the nearest tumor cell,"after 4 weeks of monotherapy, Day 1 baseline 95",43 microns
same,CD8+ T cell density,"patient 5, entire tissue sample, after monotherapy",increased
same,proliferating CD8+ T cell (Ki67+) density,"patient 5, entire tissue sample, after monotherapy, stronger impact",increased
